In US3968204A, “Antibiotic A-2315” (priority 1975, dated 1976):
Values after ≈ are worked out from the molar mass of the structure shown.

Assays:
[1] = Growth performance of growing chicks; type: in vivo; conditions: 45.4 grams/ton in diet
Procedure: Still another useful property of the A-2315 antibiotics is their ability to improve growth performance in animals. For example, when A-2315 factor A was added to the diet of growing chicks at a level of 45.4 grams/ton, the average weight gain after 10 days was 159 grams, as compared with an average weight gain of 148 grams for the control group. The feed-conversion efficiency (feed/gain) for chickens fed antibiotic A-2315 factor A was 1.44; in contrast, the feed-conversion efficiency for the control group was 1.53.

[2] = system: experimental bacterial infections; test: In vivo antimicrobial action in mice; conditions: subcutaneous injection
Procedure: (§1) When two doses each of A-2315 factors were administered to mice in illustrative infections, the ED50 values [effective dose in mg/kg to protect 50 percent of the test aninals; see Warren Wick, et al., J. Bacteriol.

Shigella flexneri = test: Disc-plate MIC; type: cell-based; conditions: Disc-Plate Method
Proteus sp. = test: Disc-plate MIC; conditions: Disc-Plate Method
[3] = system: Staphylococcus aureus 3055; test: Protection of mice against experimental bacterial infection; type: in vivo; conditions: Staphylococcus aureus, 3055, sc, subcutaneous, two doses
Procedure: as §1
^ 2 Infecting challenges: S. aureus 3.16 × LD50 (ip)

Peptococcus anaerobius = test: MIC, anaerobic bacteria; type: cell-based
Ruminal VFA = test: Ruminal volatile fatty acids in vivo in fistulated lambs; design: species or system sheep; conditions: 17 days
Procedure: Further evidence of the ability of the A-2315 antibiotics to increase feed-utilization efficiency is provided by an in vivo test of A-2315 factor A in sheep, using a procedure as follows:
Two groups of fistulated lambs are allowed slightly more than their normal feed ration for 17 days. Test compound is administered to one group in the feed on a g/ton basis.
The rumen fluids of both groups of animals are sampled on days 3, 7, 10, 14 and 17 of the treatment period.
The fermentation of the ruminal samples is halted by addition of meta-phosphoric acid. Each sample is diluted, centrifuged at 2000 × gravity for 10 minutes; the supernatants are analyzed for volatile fatty acids via the gas chromatographic method of E. S. Erwin, G. J. Marco and E. M. Emery in J. Dairy Sci., 44, 1768 (1966). Molar percentages of ruminal volatile fatty acids are calculated, and the effect is measured as a comparison of the molar percentages of propionic acid in treated animals to those in contemporary controls.

[4] = system: Bacteriodes fragilis ssp. thetaotamicron; test: MIC, anaerobic bacteria; type: cell-based
[5] = system: cariogenic Streptococcus sp.; test: Artificial plaque glass rod test; type: cell-based; conditions: 0.1% solution, contact with plaque-encrusted rods as little as 5 minutes
Procedure: Narrow glass rods, which extend below the surface of the nutrient broth, are inserted into the tubes. After incubation at 37°C. overnight, a layer of artificial plaque (primarily cells and dextran) forms on the surface of the rods. The rods are then transferred to solutions containing varying concentrations of test compound and are allowed to remain in contact with these solutions for periods of 5, 10, and 15 minutes. After the appropriate time has elapsed, the rods are rinsed by dipping in sterile, deionized water; the rods are then incubated overnight at 37°C. in uninoculated medium containing sucrose and bromothymol blue. Growth is detected by observing the color change of bromothymol blue from green to yellow, due to acid production by the organisms when grown in a sucrose-containing medium.

[6] = system: bean rust (Uromyces phaseoli var. typica); test: Plant-fungicidal activity on bean plants; type: in vivo; conditions: 400 ppm
Source text: In yet another aspect of the invention, the A-2315 antibiotics are useful as plant-fungicidal agents.

Mycoplasma gallisepticum = test: Activity in chicks infected with Mycoplasma gallisepticum; type: in vivo, chickens
Procedure: The antibiotic factor was prepared in polyethylene glycol 200 and injected subcutaneously in the neck.

[7] = system: Fusobacterium necrophorum; test: MIC, anaerobic bacteria; type: cell-based
[8] = system: cariogenic filamentous rods; test: Broth-dilution growth inhibition of cariogenic organism; type: cell-based; conditions: read-out: growth inhibiting concentration (as low as)
Procedure: (§2) In another aspect of the present invention, the A-2315 antibiotics have the ability to inhibit the growth of microorganisms contributing to the development of periodontal disease. In broth-dilution tests, A-2315 factor A inhibits the growth of the cariogenic organism Streptococcus mutans at concentrations of 1-2 μg/ml and inhibits the growth of cariogenic filamentous rods at a concentration as low as 0.1 μg/ml.

Streptococcus mutans = test: as above; type: cell-based; conditions: read-out: growth inhibiting concentration
Procedure: as §2

Eubacterium aerofaciens = test: MIC, anaerobic bacteria; type: cell-based; conditions: Collinsella aerofaciens
Candida albicans = test: Disc-plate MIC; conditions: Disc-Plate Method
Fusobacterium nucleatum = test: MIC, anaerobic bacteria; type: cell-based
[9] = system: Bacteriodes fragilis ssp. fragilis; test: MIC, anaerobic bacteria; type: cell-based
[10] = system: Staphylococcus aureus 3074; test: Agar-dilution MIC; type: cell-based
Salmonella typhosa [11] = test: Agar-dilution MIC; conditions: Salmonella enterica
Clostridium septicum = test: MIC, anaerobic bacteria; type: cell-based
[12] = system: Bacteriodes fragilis ssp. vulgates; test: MIC, anaerobic bacteria; type: cell-based
Mycobacterium avium = test: Disc-plate MIC; conditions: Disc-Plate Method
[13] = system: Staphylococcus aureus 3055; test: Disc-plate MIC; conditions: Disc-Plate Method; benzylpenicillin-susceptible
Salmonella typhosa [14] = test: Disc-plate MIC; conditions: Disc-Plate Method
Erwinia amylovora = test: Agar-dilution MIC; type: cell-based; conditions: Agar-Dilution Method
[15] = 3 mg./chick, subcutaneous, at 14 Days, infected controls 7/7
[16] = surviving infected chickens, subcutaneous

## CC1=CC(O)CC(O)Cc2nc(co2)C(=O)NC(C)C(=O)OC(C(C)C)C(C)C=CC(=O)NCC=C1 (centres unmarked) [Factor A]
[1]; after 10 days, control 148 grams
  average weight gain: 159 grams
[1]; control 1.53
  feed-conversion efficiency (feed/gain): 1.44
[2]
  in vivo antimicrobial action: have shown in vivo antimicrobial action
Shigella flexneri
  MIC: 1.56 μg/disc
Proteus sp.
  MIC: 100. μg/disc
[3]; Test I, challenge 4000 × LD50 (ip)
  ED50: 90 mg/kg
[3]; Test II, challenge 3.16 × LD50 (ip)
  ED50: 45.7 mg/kg
Peptococcus anaerobius
  MIC: 2 µg/mL (≈ 3.97 µM)
Ruminal VFA; 15g/ton in feed
  % Increase Over Control (propionic acid): 4.8%
  % Increase over Control (butyric acid): 2.4%
  Increase Relative to Control (butyric acid): 21.6%
  Increase Relative to Control (propionic acid): 18.2%
Ruminal VFA; 15 g/ton in feed, control 11.1
  % Butyric Acid Conc.: 13.5%
Ruminal VFA; 15g/ton in feed, control 26.2
  % Propionic Acid Conc.: 31.0%
[4]
  MIC: 128 µg/mL (≈ 254 µM)
[5]
  effect on cariogenic organism in artificial plaque: effective
[6]
  protection of bean plants: protected
[6]; bean plants
  phytotoxicity: Only slight phytotoxicity
Mycoplasma gallisepticum; 3 mg./chick, subcutaneous in neck, infected
  No. Died / No. in Group: 12/20
Mycoplasma gallisepticum; 3 mg./chick, subcutaneous, 3/9 not examined due to decomposition
  Dead Chicks: Air-Sac Lesions: 9/9
Mycoplasma gallisepticum; [15]
  Survivors: Air-Sac Lesions: 0/8
  Survivors: MG Antibody: 8/8
Mycoplasma gallisepticum; 3 mg./chick, subcutaneous, at 14 Days, infected controls 100 gm., normal controls 214 gm.
  Survivors: Average Weight: 133 gm.
Mycoplasma gallisepticum; infected chickens, in polyethylene glycol 200, subcutaneous in the neck
  signs of toxicity: No signs of toxicity were seen, except for slight hemorrhage in the neck area in some of the treated chicks that died early
Mycoplasma gallisepticum; [16]
  incidence of air-sac lesions: lowered incidence of air-sac lesions
  weight advantage: some weight advantage
[7]
  MIC: 16 µg/mL (≈ 31.8 µM)
[8]
  MIC: 0.1 µg/mL (≈ 0.199 µM)
Streptococcus mutans
  MIC: 1 to 2 µg/mL (≈ 1.99 to 3.97 µM)
Eubacterium aerofaciens
  MIC: 16 µg/mL (≈ 31.8 µM)
Candida albicans
  MIC: 100.0 μg/disc
Fusobacterium nucleatum
  MIC: 128 µg/mL (≈ 254 µM)
[9]
  MIC: 128 µg/mL (≈ 254 µM)
[10]
  MIC: 1.56 µg/mL (≈ 3.1 µM)
Salmonella typhosa [11]
  MIC: > 100 µg/mL
Clostridium septicum
  MIC: 32 µg/mL (≈ 63.5 µM)
[12]
  MIC: 64 µg/mL (≈ 127 µM)
Mycobacterium avium
  MIC: 3.13 μg/disc
[13]
  MIC: 0.025 μg/disc
Salmonella typhosa [14]
  MIC: 12.5 μg/disc
Erwinia amylovora
  MIC: 50 µg/mL (≈ 99.3 µM)
